Measurements from ChEMBL document CHEMBL1201862, “PubChem BioAssay data set” (2004).
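How tested: cells in 96-well plates exposed to compound for 48 hours at five concentrations. GI50 is the concentration that inhibits growth by half.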 Active and inactive are the calls of the source. No stated cut-off is given here; in the data, active = GI50 up to about 1.1 µM and inactive = higher.

How the values were obtained:
Experiment in all cases: NCI anticancer screen, dose series, 48 h
[1] = tested on: A549
[2] = tested on: DMS-273
[3] = tested on: SK-OV-3
[4] = tested on: U-251
[5] = tested on: OVCAR-8
[6] = tested on: UACC-62
[7] = tested on: UACC-257
[8] = tested on: SF-295
[9] = tested on: SK-MEL-2
[10] = tested on: HT-29
[11] = tested on: ACHN
[12] = tested on: CAKI-1
[13] = tested on: K562
[14] = tested on: HCC 2998
[15] = tested on: RXF 393
[16] = tested on: DU-145
[17] = tested on: Hs-578T
[18] = tested on: BT-549
[19] = tested on: MCF7
[20] = tested on: MDA-MB-435

Row | SMILES | GI50 [1] | GI50 [2] | GI50 [3] | GI50 [4] | GI50 [5] | GI50 [6] | GI50 [7] | GI50 [8] | GI50 [9] | GI50 [10] | GI50 [11] | GI50 [12] | GI50 [13] | GI50 [14] | GI50 [15] | GI50 [16] | GI50 [17] | GI50 [18] | GI50 [19] | GI50 [20]
1 | O=C1C2=C(c3ccccc31)C(c1ccccc1Cl)N1C(=O)CCSC1=N2 (stereo not drawn) | > 100 µM (inactive) | > 100 µM (inactive) | > 100 µM (inactive) | > 100 µM (inactive) | > 100 µM (inactive) | 76.7 µM (inactive) | > 100 µM (inactive) | > 100 µM (inactive) | > 100 µM (inactive) | > 100 µM (inactive) | > 100 µM (inactive) | > 100 µM (inactive) | > 100 µM (inactive) | > 100 µM (inactive) | – | – | – | – | – | –
2 | Cc1c(C(=O)/C=C/C=C/c2ccccc2)[n+]([O-])c2ccccc2[n+]1[O-] | 22.9 µM (inactive) | 32.2 µM (inactive) | 40.5 µM (inactive) | 33.7 µM (inactive) | 42.8 µM (inactive) | 16 µM (inactive) | 28.2 µM (inactive) | 29.2 µM (inactive) | 31.7 µM (inactive) | > 10 µM (inactive) | 25.7 µM (inactive) | 51.8 µM (inactive) | 31.8 µM (inactive) | 18.9 µM (inactive) | – | – | – | – | – | –
3 | Cc1ccc2c(c1)-c1c3c(nn1C)-c1ccccc1SC3O2 (stereo not drawn) | 50 µM (inactive) | 55.5 µM (inactive) | > 100 µM (inactive) | > 100 µM (inactive) | 39.6 µM (inactive) | – | 50.6 µM (inactive) | 83.8 µM (inactive) | 64.9 µM (inactive) | 41.6 µM (inactive) | 54.1 µM (inactive) | – | 35.1 µM (inactive) | 34 µM (inactive) | > 100 µM (inactive) | – | – | – | – | –
4 | CC(C)(C)C1=CC(=C(P(=O)(O)O)P(=O)(O)O)C=C(C(C)(C)C)C1=O | > 50 µM (inactive) | > 50 µM (inactive) | > 50 µM (inactive) | – | > 50 µM (inactive) | > 50 µM (inactive) | > 50 µM (inactive) | > 50 µM (inactive) | > 50 µM (inactive) | > 50 µM (inactive) | > 50 µM (inactive) | > 50 µM (inactive) | > 50 µM (inactive) | > 50 µM (inactive) | – | – | – | – | – | –
5 | CCOC(=O)c1cc2c3c(c(O)c(OC)c2s1)N(C(=O)c1cc2c4c(c(O)c(OC)c2s1)N(C(C)=O)CC4)CC3 | > 100 µM (inactive) | 61.8 µM (inactive) | 22 µM (inactive) | 63.8 µM (inactive) | 72.8 µM (inactive) | 98.6 µM (inactive) | > 100 µM (inactive) | 54.3 µM (inactive) | – | > 100 µM (inactive) | 77.3 µM (inactive) | > 100 µM (inactive) | > 100 µM (inactive) | > 100 µM (inactive) | 54.1 µM (inactive) | – | – | – | – | –
6 | COc1cc(OC)c2c(=O)c3cccc([N+](=O)[O-])c3n(C)c2c1 | > 100 µM (inactive) | 60.3 µM (inactive) | > 100 µM (inactive) | > 100 µM (inactive) | > 100 µM (inactive) | > 100 µM (inactive) | 87.9 µM (inactive) | > 100 µM (inactive) | > 100 µM (inactive) | > 100 µM (inactive) | – | > 100 µM (inactive) | > 100 µM (inactive) | – | > 100 µM (inactive) | – | – | – | – | –
7 | [O-][S+](Cc1ccccc1)c1nc2ccccc2nc1-c1cccs1 (stereo not drawn) | 15.2 µM (inactive) | 9.59 µM (inactive) | 29 µM (inactive) | 18.4 µM (inactive) | 13.7 µM (inactive) | – | 13.2 µM (inactive) | 24.7 µM (inactive) | 9.66 µM (inactive) | 11.7 µM (inactive) | 13.9 µM (inactive) | – | 5.38 µM (inactive) | 12.4 µM (inactive) | – | – | – | – | – | –
8 | Nc1nc2c3nc(Nc4ccccc4)sc3nc(=S)n2c2sc(Nc3ccccc3)nc12 | > 100 µM (inactive) | > 100 µM (inactive) | > 100 µM (inactive) | 15.5 µM (inactive) | 15.2 µM (inactive) | 46.7 µM (inactive) | > 100 µM (inactive) | > 100 µM (inactive) | – | > 100 µM (inactive) | > 100 µM (inactive) | – | > 100 µM (inactive) | 22.2 µM (inactive) | > 100 µM (inactive) | – | – | – | – | –
9 | COc1ccc(C(C2=C(C)C(=O)c3ccccc3C2=O)c2ccc(C(C)C)cc(=O)c2O)cc1 (stereo not drawn) | 3.55 µM (inactive) | 2.23 µM (inactive) | 3.49 µM (inactive) | 3.12 µM (inactive) | 4.18 µM (inactive) | – | – | 4.7 µM (inactive) | 1.16 µM (inactive) | 6.04 µM (inactive) | 3.05 µM (inactive) | 3.03 µM (inactive) | 3.55 µM (inactive) | – | – | – | – | – | – | –
10 | N#Cc1ncc(C(Cl)Cl)nc1Cl | 3.24 µM (inactive) | – | 3.78 µM (inactive) | 1.97 µM (inactive) | 2.15 µM (inactive) | 2.17 µM (inactive) | 1.53 µM (inactive) | 7.24 µM (inactive) | 1.91 µM (inactive) | 1.74 µM (inactive) | 2.04 µM (inactive) | 1.4 µM (inactive) | 1.33 µM (inactive) | 1.69 µM (inactive) | 1.75 µM (inactive) | 8.67 µM (inactive) | 4.66 µM (inactive) | 1.84 µM (inactive) | 1.94 µM (inactive) | 1.76 µM (inactive)
11 | CN(C)CCc1ccnc2nc(-c3ccc4ccccc4c3)cn12 | > 100 µM (inactive) | – | 38.5 µM (inactive) | 38.2 µM (inactive) | 26.9 µM (inactive) | 44.5 µM (inactive) | 36.3 µM (inactive) | 88.7 µM (inactive) | > 100 µM (inactive) | 17.8 µM (inactive) | 29.4 µM (inactive) | 35.2 µM (inactive) | 79.8 µM (inactive) | 18.5 µM (inactive) | 30.9 µM (inactive) | 45.2 µM (inactive) | 17.8 µM (inactive) | 23.4 µM (inactive) | 34.7 µM (inactive) | 33.3 µM (inactive)
12 | O=C(O)C[S+]([O-])c1ccc2c3c(cccc13)C(=O)c1ccccc1-2 (stereo not drawn) | > 100 µM (inactive) | – | > 100 µM (inactive) | > 100 µM (inactive) | > 100 µM (inactive) | > 100 µM (inactive) | > 100 µM (inactive) | > 100 µM (inactive) | > 100 µM (inactive) | > 100 µM (inactive) | > 100 µM (inactive) | > 100 µM (inactive) | > 100 µM (inactive) | > 100 µM (inactive) | > 100 µM (inactive) | > 100 µM (inactive) | > 100 µM (inactive) | > 100 µM (inactive) | > 100 µM (inactive) | > 100 µM (inactive)
13 | CC(=O)OC(C)c1cc2c(s1)C(=O)c1scc(C(C)OC(C)=O)c1C2=O (stereo not drawn) | 0.363 µM (active) | – | 2.16 µM (inactive) | 0.25 µM (active) | 0.24 µM (active) | 0.212 µM (active) | 0.174 µM (active) | 0.164 µM (active) | 0.227 µM (active) | 0.391 µM (active) | 0.238 µM (active) | 1.56 µM (inactive) | 0.355 µM (active) | 0.317 µM (active) | 0.301 µM (active) | 0.178 µM (active) | 0.339 µM (active) | 0.218 µM (active) | 0.251 µM (active) | 0.0292 µM (active)
14 | Cc1ccc(-c2cc(-c3ccco3)nc(N)n2)o1 | > 100 µM (inactive) | > 100 µM (inactive) | – | – | > 100 µM (inactive) | > 100 µM (inactive) | – | > 100 µM (inactive) | > 100 µM (inactive) | > 100 µM (inactive) | > 100 µM (inactive) | – | > 100 µM (inactive) | – | > 100 µM (inactive) | – | – | – | – | –
